We go through one compound from patent publication US10080366B2, “Agent for increasing sugar content in fruit” (RIKEN, priority 2012, dated 2018).

Read-outs that look alike come from different tables or passages of the source.

The test system of test [1] is fruit of grape (variety: Steuben). To be noted: 10 g/L. Here is the method:
An agent for increasing a sugar content in a fruit (containing Sorbon T-20 as a spreader/sticker at a final concentration of 200 μL/L) diluted with water to contain potassium hydrogen carbonate at 10 g/L was prepared. The mass of fruit of grape (variety: Steuben) purchased on the market was measured. Then, the prepared agent for increasing a sugar content in a fruit was applied by spraying to the fruit of grape. The fruit of grape was allowed to stand in an air-conditioned greenhouse (temperature: 25° C.), and the mass was measured over time (date of application: Feb. 7, 2011). In addition, as a control, the mass of untreated grape was measured on each of the dates of measurement in the same manner.

Test [2] deals with Wheat (grains: Norin No. 61). To be noted: 10 g/L, three times at intervals of one week. The text has this:
(§1) To each of the plants shown in Table 16 below, an aqueous potassium hydrogen carbonate solution (5 g/L for lettuce and 10 g/L for the other plants) was applied three times at intervals of one week from one month before the harvest. The plants were harvested three weeks after the start of the application. Untreated plants not treated with the aqueous potassium hydrogen carbonate solution were harvested at the same time. After the harvest, the total amount of amino acids in each sample was determined, and the ratio of the total amount of amino acids in the plant treated with potassium hydrogen carbonate to the total amount of amino acids in the untreated plant was determined.

Another test deals with Tomato (fruit: Regina). To be noted: 10 g/L, three times at intervals of one week.
Excerpt: as §1

Test [3] deals with Lettuce (leaves: Great Lakes). The settings on record: 5 g/L, three times at intervals of one week.
Excerpt: as §1

The test system of test [4] is Grape (fruit: Cabernet Sauvignon). To be noted: 10 g/L, three times at intervals of one week.
Excerpt: as §1

The test system of test [5] is Rice plant (grains: Nipponbare). To be noted: 10 g/L, three times at intervals of one week.
Excerpt: as §1

For test [6], the system named is harvested fruit of grape (variety: Barikan). The settings on record: for Sugar content (%) on date of application (Jun. 2): before application.
Setting [7] is: 10 g/L, 25° C., mass 100 g on date of application.

Consider `O=C([O-])O.[K+]` [Potassium hydrogen carbonate, potassium hydrogen carbonate], for which the “increase of amount of transpiration in comparison with untreated” value in test [1] (7 days) is listed as “approximately 25%”. The “water lost per 100 g of grape” value in test [1] (7 days, decrease in mass assumed to be transpiration) is “approximately 25 ml”. Moreover, the “mass of fruit per 100 g on date of application, 1 day later” value in test [1] (Feb. 8) turned out to be 96.2 g. Moreover, in test [1] (Feb. 9), the “mass of fruit per 100 g on date of application, 2 days later” value came out at 92.1 g. Also, the “mass of fruit per 100 g on date of application, 3 days later” value in test [1] (Feb. 10) is recorded as 88.6 g. Further, the “mass of fruit per 100 g on date of application, 7 days later” value in test [1] (Feb. 14) was 74.9 g. For the same compound, the “sugar content 7 days later (calculated)” value in test [1] (assuming 15% on date of application) is listed as 20.0%. For the same compound, the “Amino acid concentration ratio (treated/untreated)” value in test [2] is 1.2; in the test with Tomato (fruit: Regina), 1.8; in test [3], 1.5; in test [4], 2.2; in test [5], 1.2. Besides, the “decrease of mass of fruit in 8 days (June 2 to June 10)” value in test [6] (10 g/L) came out at 27.3%. For the same compound, the “Sugar content (%) 8 days later, actually measured value” worked out at 24.0% in test [6] (10 g/L, 25° C.) and 24% in test [6] (10 g/L, 25° C., listed as potassium hydrogen carbonate). Moreover, the “Mass (g) 6 days later (Jun. 8)” value in test [6] (setting [7]) is on record as 79.4 g. Besides, the “Mass (g) 8 days later (Jun. 10)” value in test [6] (setting [7]) was found to be 72.7 g. Further, the “Sugar content (%) 8 days later, calculated value” in test [6] (10 g/L, calculated from decrease in mass) is recorded as 24.8%. The “Sugar content (%) on date of application (Jun. 2)” value in test [6] was found to be 18.0%; in test [6] (listed as potassium hydrogen carbonate), 18%.
